Where two headings read alike, the source gives them in different places.
What was measured:
[1] = target: human GABAA α5β2γ1 receptor (Homo sapiens (Human), UniProt P31644+Q8N1C3); test: Radioligand binding assay for γ1-containing GABAA subtypes, [3H]RO7239181 competition (α5β2γ1)
Protocol: (§1) The affinity of compounds at GABAA γ1 subunit-containing receptors was measured by competition for [^3H]RO7239181 (67.3 Ci/mmol; Roche) binding to membranes from HEK293F cells (ThermoFisher R79007) expressing human (transiently transfected) receptors of composition α5β2γ1, α2β2γ1, α1β2γ1.
(§2) Harvested pellets from HEK293F cells expressing the different GABAA receptor subtypes were resuspended in Mannitol Buffer pH 7.2-7.4 (Mannitol 0.29 M, Triethylamine 10 mM, Acetic acid 10 mM, EDTA 1 mM plus protease inhibitors (20 tablets Complete, Roche Diagnostics Cat. No. 05 056 489 001 per liter)), washed two times and then resuspended at 1:10 to 1:15 dilution in the same buffer. Cell disruption was performed by stirring the suspension in a Parr vessel #4637 at 435 psi for 15 minutes, and then the suspensions were centrifuged at 1000×g for 15 minutes at 4° C. (Beckman Avanti J-HC; rotor JS-4.2). The supernatant (S1) was transferred in a 2 l Schott flask and the pellet (P1) was resuspended with Mannitol Buffer up to 175 ml. The resuspended pellet was transferred into a 250 ml Corning centrifugal beaker and centrifuged at 1500×g for 10 minutes at 4° C. (Beckman Avanti J-HC; rotor JS-4.2). The supernatant (S1) was then transferred in the 2 l Schott flask and the pellet was discarded. The supernatants (S1) were centrifuged in 500 ml Beckman polypropylene centrifugal beaker at 15′000×g for 30 minutes at 4° C. (Beckman Avanti J-20 XP; rotor JLA-10.500). The pellet (P2) was resuspended with Mannitol Buffer 1:1 and frozen at −80° C. The supernatant (S2) was centrifuged in 100 ml Beckman polypropylene centrifugal tubes at 48000×g for 50 minutes at 4° C. (Beckman Avanti J-20 XP; rotor JA-18). The supernatant (S3) was discarded and the pellet (P3) was resuspended with 1:1 Mannitol Buffer. The P2 and P3 protein concentration was determined with the BIORAD Standard assay method with bovine serum albumin as standard and measured on the NANO-Drop 1000. The membrane suspension was aliquots (500 μl per tube) and stored at −80° C. until required.
(§3) Membrane homogenates were resuspended and polytronised (Polytron PT1200E Kinematica AG) in Potassium Phosphate 10 mM, KCl 100 mM binding buffer at pH 7.4 to a final assay concentration determined with a previous experiment.
(§4) Assays were incubated to equilibrium for 1 hour at 4° C. and then, membranes were filtered onto unifilter (96-well white microplate with bonded GF/C filters preincubated 20-50 minutes in 0.3% Polyethylenimine) with a Filtermate 196 harvester (Packard BioScience) and washed 4 times with cold Potassium Phosphate 10 mM pH 7.4, KCl 100 mM binding buffer. After anhydrousing, filter-retained radioactivity was detected by liquid scintillation counting. Ki values were calculated using Excel-Fit (Microsoft) and are the means of two determinations.

[2] = target: human GABAA α2β2γ1 receptor (Homo sapiens (Human), UniProt P47869+Q8N1C3); test: Radioligand binding assay for γ1-containing GABAA subtypes, [3H]RO7239181 competition (α2β2γ1)
Protocol: as §1, §2, §3, §4

[3] = target: human GABAA α1β3γ2 receptor (Homo sapiens (Human), UniProt P14867+P18507); test: Radioligand binding assay for γ2-containing GABAA subtypes, [3H]Flumazenil competition (α1β3γ2); conditions: for γ2/γ1 Selectivity Ratio: Ki α1β3γ2 (nM)/Ki α2β2γ1 (nM); for LogSel: Log[Ki α1β3γ2 (nM)/Ki α2β2γ1 (nM)]
Protocol: The affinity of compounds at GABAA γ2 subunit-containing receptors was measured by competition for [^3H]Flumazenil (81.1 Ci/mmol; Roche) binding to HEK293F cells expressing human (transiently transfected) receptors of composition α1β3γ2.
Harvested pellets from HEK293F cells expressing the different GABAA γ2 receptor subtypes were resuspended in Mannitol Buffer pH 7.2-7.4 and processed as described above for the cells expressing the GABAA γ1 subunit-containing receptors.
Assays were incubated to equilibrium for 1 hour at 4° C. and harvested onto GF/C uni-filters (Packard) by filtration using a Packard harvester and washing with ice-cold wash buffer (50 mM Tris; pH 7.5). After anhydrousing, filter-retained radioactivity was detected by liquid scintillation counting. Ki values were calculated using Excel-Fit (Microsoft) and are the means of two determinations.

[4] = target: α2β2γ1 GABAA receptor subtype (Homo sapiens (Human), UniProt P47869+Q8N1C3); test: Two-electrode voltage clamp electrophysiology in Xenopus oocytes expressing GABAA receptors (modulation of GABA EC20 current); type: cell-based; conditions: for Efficacy (GABA)%: % modulation of GABA EC20 = 100*(Fold increase-1), α2β2γ1 oocytes, compound at approx. 30-fold Ki; for Fold increase h-GABA-A α2β2γ1 oocyte @ 30-fold Ki: Xenopus oocytes expressing α2β2γ1, compound at approx. 30-fold its Ki α2β2γ1, GABA EC20 current
Protocol: Xenopus laevis oocytes at maturation stages V-VI were used for the expression of cloned mRNA encoding GABAA receptor subunits. Oocytes ready for RNA micro-injection were bought from Ecocyte, Castrop-Rauxel, Germany and stored in modified Barth's medium (composition in mM: NaCl 88, KCl 1, NaHCO3 2.4, HEPES 10, MgSO4 0.82, CaNO3 0.33, CaCl2 0.33, pH=7.5) at 20° C. until the experiment.
Oocytes were plated in 96-well plates for microinjection using the Roboinject automated instrument (MultiChannelSystems, Reutlingen, Germany). Approximately 50 nL of an aqueous solution containing the RNA transcripts for the subunits of the desired GABAA receptor subtype was injected into each oocyte. […] Oocytes were kept in modified Barth's medium (composition in mM: NaCl 88, KCl 1, NaHCO3 […], HEPES 10, MgSO4 0.82, CaNO3 0.33, CaCl2 0.33, pH=7.5) at 20° C. until the experiment.
Electrophysiological experiments were performed using the Roboocyte instrument (MultiChannelSystems, Reutlingen, Germany) on days 3 to 5 after the micro-injection of mRNA. During the experiment the oocytes were constantly superfused by a solution containing (in mM) NaCl 90, KCl 1, HEPES 5, MgCl2 1, CaCl2 1 (pH 7.4). Oocytes were impaled by two glass microelectrodes (resistance: 0.5-0.8 MΩ) which were filled with a solution containing KCl 1M+K-acetate 1.5 M and voltage-clamped to −80 mV. The recordings were performed at room temperature using the Roboocyte two-electrode voltage clamp system (Multichannelsystem). After an initial equilibration period of 1.5 min GABA was added for 1.5 min at a concentration evoking approximately 20% of a maximal current response (EC20). After another rest interval of 2.5 min GABA was again added evoking a response of similar amplitude and shape. […] Current traces were recorded at a digitization rate of 10 Hz during and shortly before and after the GABA application.
Each compound and concentration was tested on at least 3 oocytes. Different oocytes were used for different compound concentrations.
For the analysis, the digitized current traces of the first and second GABA response were superimposed and, if necessary, rescaled to equal maximal amplitudes. The ratio between the two responses during the time interval of test compound application was calculated point by point. The extremum of the resulting “ratio trace” was taken as the efficacy (“Fold increase”) of the compound expressed as “% modulation of GABA EC20” (100*(Fold increase-1)).

[5] = Ki h-GABAA α2β2γ1, [3H]RO7239181 competition binding, human GABAA α2β2γ1
[6] = Ki h-GABAA α2β2γ1, displacement of [3H]RO7239181, membranes of HEK293F cells expressing human receptors, means of two determinations

SMILES | Ki [1] [nM] | Ki [2, 5] [nM] | Ki [2, 6] [nM] | Ki [3] [nM] | γ2/γ1 Selectivity Ratio [3] | LogSel [3] | Efficacy (GABA)% [4] [%] | Fold increase h-GABA-A α2β2γ1 oocyte @ 30-fold Ki [4] | Ki ([2]; Ki h-GABAA α2β2γ1, Table 3, reference compounds) [nM] | γ2/γ1 Selectivity Ratio ([3]; Table 3) | LogSel ([3]; Table 3) | Ki ([3]; read-out: Ki h-GABAA α1β3γ2, Table 3, reference compounds) [nM]
CNC(=O)c1nc2n(n1)-c1ccc(Cl)c(Cl)c1C(c1c(F)cccc1F)=NC2 [Example 6, 7,8-dichloro-6-(2,6-difluorophenyl)-N-methyl-4H-[1,2,4]triazolo[1,5-a][1,4]benzodiazepine-2-carboxamide] | 0.75 | 5.5 | 5.5 | 1440 | 260.9 | 2.42 | 101 | 2.01 | – | – | – | –
[2H]C([2H])([2H])NC(=O)c1nc2n(n1)-c1ccc(Cl)c(Cl)c1C(c1c(F)cccc1F)=NC2 [Example 7, 7,8-dichloro-6-(2,6-difluorophenyl)-N-(trideuteriomethyl)-4H-[1,2,4]triazolo[1,5-a][1,4]benzodiazepine-2-carboxamide] | 0.75 | 6 | 6 | 455 | 75.6 | 1.88 | 68 | 1.68 | – | – | – | –
O=C(c1nc2n(n1)-c1ccc(Cl)c(Cl)c1C(c1c(F)cccc1F)=NC2)N1CCC1 [Example 8, azetidin-1-yl-[7,8-dichloro-6-(2,6-difluorophenyl)-4H-[1,2,4]triazolo[1,5-a][1,4]benzodiazepin-2-yl]methanone] | 1.08 | 8.2 | 8.2 | 368 | 44.7 | 1.65 | 98 | 1.98 | – | – | – | –
CN(C)C(=O)c1nc2n(n1)-c1ccc(Cl)c(Cl)c1C(c1c(F)cccc1F)=NC2 [Example 9, 7,8-dichloro-6-(2,6-difluorophenyl)-N,N-dimethyl-4H-[1,2,4]triazolo[1,5-a][1,4]benzodiazepine-2-carboxamide] | 1.15 | 5.5 | 5.5 | 989 | 179.8 | 2.25 | 123 | 2.23 | 5.5 | 179.8 | 2.25 | 989
O=C(NC1COC1)c1nc2n(n1)-c1ccc(Cl)c(Cl)c1C(c1c(F)cccc1F)=NC2 [Example 10, 7,8-dichloro-6-(2,6-difluorophenyl)-N-(oxetan-3-yl)-4H-[1,2,4]triazolo[1,5-a][1,4]benzodiazepine-2-carboxamide] | 0.79 | 3.1 | 3.06 | 445 | 145.5 | 2.16 | 70 | 1.70 | – | – | – | –
COC1CN(C(=O)c2nc3n(n2)-c2ccc(Cl)c(Cl)c2C(c2c(F)cccc2F)=NC3)C1 [Example 11, [7,8-dichloro-6-(2,6-difluorophenyl)-4H-[1,2,4]triazolo[1,5-a][1,4]benzodiazepin-2-yl]-(3-methoxyazetidin-1-yl)methanone] | 0.84 | 2.7 | 2.71 | 451 | 166.3 | 2.22 | 62 | 1.62 | – | – | – | –
CNC(=O)c1cn2c(n1)CN=C(c1ncccc1F)c1c-2ccc(Cl)c1Cl [Example 12, 7,8-dichloro-6-(3-fluoro-2-pyridyl)-N-methyl-4H-imidazo[1,2-a][1,4]benzodiazepine-2-carboxamide] | 9.3 | 36.7 | 36.7 | 506 | 13.8 | 1.14 | 125 | 2.25 | – | – | – | –
C[C@@H]1N=C(c2c(F)cccc2F)c2c(ccc(Cl)c2Cl)-n2nc(CO)nc21 [Example 13, [(4S)-7,8-dichloro-6-(2,6-difluorophenyl)-4-methyl-4H-[1,2,4]triazolo[1,5-a][1,4]benzodiazepin-2-yl]methanol] | 0.6 | 2.6 | 2.58 | 368 | 142.7 | 2.15 | 59 | 1.59 | – | – | – | –
C[C@@H]1N=C(c2c(F)cccc2F)c2c(ccc(Cl)c2Cl)-n2ncnc21 [Example 15, (4S)-7,8-dichloro-6-(2,6-difluorophenyl)-4-methyl-4H-[1,2,4]triazolo[1,5-a][1,4]benzodiazepine] | 0.4 | 6 | 6 | 278 | 46.3 | 1.67 | 62 | 1.62 | – | – | – | –
